PMC6152666, “Five New Limonoids from Peels of Satsuma Orange (Citrus reticulata)” (Molecules : A Journal of Synthetic Chemistry and Natural …, 2017)

What was measured:
[1] = test system: NO production in RAW264.7 mouse macrophages stimulated by lipopolysaccharide (LPS); assay: Inhibitory assay of NO production in LPS-stimulated RAW264.7 macrophages; format: cell-based; conditions: RAW264.7 + LPS 5 μg/mL, 24 h; for activity at 1 µM / activity at 3 µM / activity at 10 µM / activity at 30 µM / IC50: Mus musculus; for activity at 1 µM / activity at 3 µM / activity at 10 µM / activity at 30 µM / Inhibitory Ratio of NO % (produced NO ratio): vehicle control = 100%, mean ± S.E., n=4; for activity at 1 µM / activity at 3 µM / activity at 10 µM: read-out: Inhibitory Ratio of NO %; for activity at 30 µM: read-out: Inhibitory Ratio of NO % (produced NO ratio); for activity at 30 µM / Inhibitory Ratio of NO % (produced NO ratio): 30 μM
Source text: Macrophages may be a potential therapeutic target for inflammatory diseases. Activated macrophages release pro-inflammatory mediators, such as NO, reactive oxygen species, interleukin-1β, tumor necrosis factor-α, and other inflammatory mediators, which play important roles in biological defense. However, the overexpression of these mediators had been implicated in diseases such as osteoarthritis, rheumatoid arthritis, and diabetes because the increased production of pro-inflammatory mediators induces severe or chronic inflammation. Isolated compounds (1–12), and N^G-monomethyl-L-arginine, acetate (L-NMMA), which is a NO synthase inhibitor and was used as a positive control, were evaluated for macrophage activation by the inhibitory assay of NO production in RAW264.7 mouse macrophages stimulated by lipopolysaccharide (LPS).
(§1) RAW264.7 cells were grown in D-MEM medium supplemented with 10% FBS and antibiotics (100 units/mL penicillin G sodium salt and 100 μg/mL streptomycin sulfate). Cells were incubated at 37 °C in a 5% CO2 humidified incubator.
An inhibitory assay of NO production was performed according to a method reported previously with slight modifications. Briefly, RAW264.7 cells (5 × 10^4 cells in 100 μL) were seeded into a 96-well microplate and incubated for 24 h. DMEM containing test samples (100 μL total volume, final concentration of 30, 10, 3, or 1 μM) dissolved in DMSO (final concentration 0.2%), and LPS (final concentration of 5 μg/mL), was added. After treatment for 24 h, the supernatant of culture medium was transferred to another 96-well microplate, and then 50 μL of 0.15% N-(1-naphtyl)ethylenediamine in H2O, and 1.5% sulfanilamide in 7.5% phosphoric acid were added. After incubation for 30 min, the absorbance of each well was read at 570 nm using a microplate reader. The optical density of vehicle control cells was assumed to be 100%.

[2] = Cytotoxicity assay (MTT) in RAW264.7 cells; format: cell-based, mouse; conditions: mouse, RAW264.7 cells, RAW264.7, MTT, 24 h, vehicle control = 100%, mean ± S.E., n=4, read-out: Cell Viability %
Experimental: as §1
Cytotoxicity assay was performed according to a method reported previously Briefly, RAW264.7 cells (5 × 10^4 cells in 100 μL) were seeded onto a 96-well microplate and incubated for 24 h. DMEM containing test samples (100 μL total volume, final concentration of 30, 10, 3, or 1 μM) dissolved in DMSO (final concentration 0.2%) was added. After treatment for 24 h, MTT solution was added. After a 3-h incubation, 20% sodium dodecyl sulfate in 0.1 M HCl was added to dissolve the formazan produced in the cells. The absorbance of each well was read at 570 nm using a microplate reader. The optical density of vehicle control cells was assumed to be 100%.

IC50 [1] [µM]	melting point [°C]	Compound	activity at 1 µM [1] [%]	activity at 3 µM [1] [%]	activity at 10 µM [1] [%]	activity at 30 µM [1] [%]	viability at 24 h, 1 µM [2] [%]	viability at 24 h, 3 µM [2] [%]	viability at 24 h, 10 µM [2] [%]	viability at 24 h, 30 µM [2] [%]	Inhibitory Ratio of NO % (produced NO ratio) [1] [%]
> 30		CC1(C)O[C@H]2CC(=O)OC[C@]23[C@H]2CC[C@@]4(C)[C@H](C5=CC(O)OC5=O)OC(=O)[C@H]5O[C@]54[C@]2(C)C(=O)C[C@@H]13 (stereo partly shown) [Compound 8, limonexic acid]	97.2 ± 1.1	94.7 ± 2.4	90.9 ± 1.6	76	98.1	97.6	92	89.3	76.0 ± 2.2
> 30		CC(C)(O)[C@@H]1CC(=O)[C@]2(C)[C@H](CC[C@@]3(C)[C@H](c4ccoc4)OC(=O)[C@H]4O[C@]432)[C@]12COC(=O)C[C@@H]2O [Compound 12, ichangin]	107 ± 4.1	92.6 ± 3.2	88.4 ± 5.5	73.9	101	98.1	98.3	98.3	73.9 ± 3.4
> 30		CC1(C)O[C@H]2CC(=O)OC[C@]23[C@H]2CC[C@@]4(C)[C@H](C5=CC(=O)OC5O)OC(=O)[C@H]5O[C@]54[C@]2(C)C(=O)C[C@@H]13 (stereo partly shown) [Compound 7, shihulimonin A]	99.8 ± 1.4	99 ± 3	96.8 ± 2.5	93.9 ± 4	102	106	104	100	

Further lines, the compound ahead of its results:

Compound	IC50 [1] [µM]	melting point [°C]	activity at 1 µM [1] [%]	activity at 3 µM [1] [%]	activity at 10 µM [1] [%]	activity at 30 µM [1] [%]	viability at 24 h, 1 µM [2] [%]	viability at 24 h, 3 µM [2] [%]	viability at 24 h, 10 µM [2] [%]	viability at 24 h, 30 µM [2] [%]	Inhibitory Ratio of NO % (produced NO ratio) [1] [%]
[H]/N=C(/NC)NCCC[C@H](N)C(=O)O [L-NMMA, N^G-monomethyl-L-arginine, acetate, reference compound]	23.9		93.3 ± 2.2	91.4 ± 0.8	68.9 ± 4.5	43.1 ± 1.1	102	102	98.5	109	
CC(=O)O[C@H]1CC(=O)OC(C)(C)[C@@H]2CC(=O)[C@]3(C)[C@H](CC[C@@]4(C)[C@H](C5=CC(=O)OC5O)OC(=O)[C@H]5O[C@]543)[C@@]12C (stereo partly shown) [Compound 1, 21,23-dihydro-21-hydroxy-23-oxonomilin]	> 30	200 to 201	110 ± 2.8	111 ± 1.7	105 ± 2.2	107 ± 2.5	99.1	102	104	99.3	
COC(=O)CC(OC(C)=O)C1(C)C(C(C)(C)O)CC(=O)C2(C)C1CCC1(C)C(C3=CC(=O)OC3O)OC(=O)C3OC312 (stereo not shown) [Compound 3, 21,23-dihydro-21-hydroxy-23-oxonomilinic acid methyl ester]	> 30		99.4 ± 0.8	99.4 ± 2.3	94.1 ± 1.9	80.3	96.8	94.5	93.2	93.4	80.3 ± 1.2
